Experimental data taken from US6436963B1 (priority 1998, dated 2002).

Experiments:
Format in all cases: in vivo
Phytophthora infestans = conditions: tomatoes (cultivar Rutgers), sprayed to run off at 100 ppm, inoculated after 24 hours
Puccinia recondita = assay: Brown Rust (PUCCRT), protectant spray test on wheat seedlings; conditions: wheat (cultivar Monon), sprayed to run off at 100 ppm, inoculated after 24 hours
Erysiphe graminis = assay: Powdery Mildew of Wheat (ERYSGT), protectant spray test on wheat seedlings; conditions: wheat (cultivar Monon), sprayed to run off at 100 ppm, inoculated after 24 hours
Leptosphaeria nodorum = assay: Glume Blotch of Wheat (LEPTNO), protectant spray test on wheat seedlings; conditions: wheat (cultivar Monon), sprayed to run off at 100 ppm, inoculated after 24 hours

## CCOC(=O)OC(c1ccccc1)c1cnc(OCc2ccccc2C(=NOC)C(=O)NC)c(Cl)c1 (racemic) [Example 33]
Phytophthora infestans
  PHYTIN control of plant disease: ++ (++ = 75-100% control of plant disease)
Puccinia recondita
  PUCCRT control of plant disease: ++ (++ = 75-100% control of plant disease)
Erysiphe graminis
  ERYSGT control of plant disease: + (+ = 25-74% control of plant disease)
Leptosphaeria nodorum
  LEPTNO control of plant disease: ++ (++ = 75-100% control of plant disease)

## CNC(=O)C(=NOC)c1ccccc1COc1ncc(C(C)(OC)c2ccccc2)cc1Cl (racemic) [Example 35]
Phytophthora infestans
  PHYTIN control of plant disease: − (− = 0-24% control of plant disease)
Puccinia recondita
  PUCCRT control of plant disease: ++ (++ = 75-100% control of plant disease)
Erysiphe graminis
  ERYSGT control of plant disease: ++ (++ = 75-100% control of plant disease)
Leptosphaeria nodorum
  LEPTNO control of plant disease: ++ (++ = 75-100% control of plant disease)

## CCC(=O)OC(c1ccccc1)c1cnc(OCc2ccccc2C(=NOC)C(=O)NC)c(Cl)c1 (racemic) [Example 36]
Phytophthora infestans
  PHYTIN control of plant disease: ++ (++ = 75-100% control of plant disease)
Puccinia recondita
  PUCCRT control of plant disease: ++ (++ = 75-100% control of plant disease)
Erysiphe graminis
  ERYSGT control of plant disease: + (+ = 25-74% control of plant disease)
Leptosphaeria nodorum
  LEPTNO control of plant disease: ++ (++ = 75-100% control of plant disease)

## CNC(=O)C(=NOC)c1ccccc1COc1ncc(C(OC(=O)C(F)(F)F)c2ccccc2)cc1Cl (racemic) [Example 37]
Phytophthora infestans
  PHYTIN control of plant disease: ++ (++ = 75-100% control of plant disease)
Puccinia recondita
  PUCCRT control of plant disease: ++ (++ = 75-100% control of plant disease)
Erysiphe graminis
  ERYSGT control of plant disease: + (+ = 25-74% control of plant disease)
Leptosphaeria nodorum
  LEPTNO control of plant disease: ++ (++ = 75-100% control of plant disease)

## CNC(=O)C(=NOC)c1ccccc1COc1ncc(C(OC)c2ccccc2)cc1Cl (racemic) [Example 38]
Phytophthora infestans
  PHYTIN control of plant disease: − (− = 0-24% control of plant disease)
Puccinia recondita
  PUCCRT control of plant disease: ++ (++ = 75-100% control of plant disease)
Erysiphe graminis
  ERYSGT control of plant disease: + (+ = 25-74% control of plant disease)
Leptosphaeria nodorum
  LEPTNO control of plant disease: ++ (++ = 75-100% control of plant disease)

## CNC(=O)C(=NOC)c1ccccc1COc1ncc(C(C)O)cc1Cl (racemic) [Example 40]
Phytophthora infestans
  PHYTIN control of plant disease: + (+ = 25-74% control of plant disease)
Puccinia recondita
  PUCCRT control of plant disease: ++ (++ = 75-100% control of plant disease)
Erysiphe graminis
  ERYSGT control of plant disease: + (+ = 25-74% control of plant disease)
Leptosphaeria nodorum
  LEPTNO control of plant disease: ++ (++ = 75-100% control of plant disease)

## CCCCCOC(C)c1cnc(OCc2ccccc2C(=NOC)C(=O)NC)c(Cl)c1 (racemic) [Example 41]
Phytophthora infestans
  PHYTIN control of plant disease: − (− = 0-24% control of plant disease)
Puccinia recondita
  PUCCRT control of plant disease: ++ (++ = 75-100% control of plant disease)
Erysiphe graminis
  ERYSGT control of plant disease: ++ (++ = 75-100% control of plant disease)
Leptosphaeria nodorum
  LEPTNO control of plant disease: ++ (++ = 75-100% control of plant disease)

## CCC(O)(c1ccccc1)c1cnc(OCc2ccccc2C(=NOC)C(=O)NC)c(Cl)c1 (racemic) [Example 42]
Phytophthora infestans
  PHYTIN control of plant disease: ++ (++ = 75-100% control of plant disease)
Puccinia recondita
  PUCCRT control of plant disease: ++ (++ = 75-100% control of plant disease)
Erysiphe graminis
  ERYSGT control of plant disease: ++ (++ = 75-100% control of plant disease)
Leptosphaeria nodorum
  LEPTNO control of plant disease: ++ (++ = 75-100% control of plant disease)

## CNC(=O)C(=NOC)c1ccccc1COc1ncc(C(O)C(C)C)cc1Cl (racemic) [Example 43]
Phytophthora infestans
  PHYTIN control of plant disease: ++ (++ = 75-100% control of plant disease)
Puccinia recondita
  PUCCRT control of plant disease: ++ (++ = 75-100% control of plant disease)
Erysiphe graminis
  ERYSGT control of plant disease: ++ (++ = 75-100% control of plant disease)
Leptosphaeria nodorum
  LEPTNO control of plant disease: + (+ = 25-74% control of plant disease)

## CNC(=O)C(=NOC)c1ccccc1COc1ncc(C(C)OCc2ccc(C)cc2)cc1Cl (racemic) [Example 44]
Phytophthora infestans
  PHYTIN control of plant disease: ++ (++ = 75-100% control of plant disease)
Puccinia recondita
  PUCCRT control of plant disease: ++ (++ = 75-100% control of plant disease)
Erysiphe graminis
  ERYSGT control of plant disease: ++ (++ = 75-100% control of plant disease)
Leptosphaeria nodorum
  LEPTNO control of plant disease: ++ (++ = 75-100% control of plant disease)

## CNC(=O)C(=NOC)c1ccccc1COc1ncc(C(OC(=O)N(C)C)c2ccccc2)cc1Cl (racemic) [Example 45]
Phytophthora infestans
  PHYTIN control of plant disease: ++ (++ = 75-100% control of plant disease)
Puccinia recondita
  PUCCRT control of plant disease: ++ (++ = 75-100% control of plant disease)
Erysiphe graminis
  ERYSGT control of plant disease: ++ (++ = 75-100% control of plant disease)
Leptosphaeria nodorum
  LEPTNO control of plant disease: ++ (++ = 75-100% control of plant disease)

## CNC(=O)C(=NOC)c1ccccc1COc1ncc(C(OC(C)=O)c2ccc(F)cc2)cc1Cl (racemic) [Example 46]
Phytophthora infestans
  PHYTIN control of plant disease: − (− = 0-24% control of plant disease)
Puccinia recondita
  PUCCRT control of plant disease: − (− = 0-24% control of plant disease)
Erysiphe graminis
  ERYSGT control of plant disease: ++ (++ = 75-100% control of plant disease)
Leptosphaeria nodorum
  LEPTNO control of plant disease: ++ (++ = 75-100% control of plant disease)

## CCCC(=O)OC(c1ccccc1)c1cnc(OCc2ccccc2C(=NOC)C(=O)NC)c(Cl)c1 (racemic) [Example 47]
Phytophthora infestans
  PHYTIN control of plant disease: ++ (++ = 75-100% control of plant disease)
Puccinia recondita
  PUCCRT control of plant disease: ++ (++ = 75-100% control of plant disease)
Erysiphe graminis
  ERYSGT control of plant disease: ++ (++ = 75-100% control of plant disease)
Leptosphaeria nodorum
  LEPTNO control of plant disease: ++ (++ = 75-100% control of plant disease)

## CCC(=O)OC(c1ccc(F)cc1)c1cnc(OCc2ccccc2C(=NOC)C(=O)NC)c(Cl)c1 (racemic) [Example 48]
Phytophthora infestans
  PHYTIN control of plant disease: ++ (++ = 75-100% control of plant disease)
Puccinia recondita
  PUCCRT control of plant disease: ++ (++ = 75-100% control of plant disease)
Erysiphe graminis
  ERYSGT control of plant disease: ++ (++ = 75-100% control of plant disease)
Leptosphaeria nodorum
  LEPTNO control of plant disease: ++ (++ = 75-100% control of plant disease)

## CNC(=O)C(=NOC)c1ccccc1COc1ncc(C(O)c2ccc3ccccc3c2)cc1Cl (racemic) [Example 49]
Phytophthora infestans
  PHYTIN control of plant disease: ++ (++ = 75-100% control of plant disease)
Puccinia recondita
  PUCCRT control of plant disease: ++ (++ = 75-100% control of plant disease)
Erysiphe graminis
  ERYSGT control of plant disease: ++ (++ = 75-100% control of plant disease)
Leptosphaeria nodorum
  LEPTNO control of plant disease: ++ (++ = 75-100% control of plant disease)

## CCCC(=O)OC(c1ccc(F)cc1)c1cnc(OCc2ccccc2C(=NOC)C(=O)NC)c(Cl)c1 (racemic) [Example 50]
Phytophthora infestans
  PHYTIN control of plant disease: ++ (++ = 75-100% control of plant disease)
Puccinia recondita
  PUCCRT control of plant disease: ++ (++ = 75-100% control of plant disease)
Erysiphe graminis
  ERYSGT control of plant disease: ++ (++ = 75-100% control of plant disease)
Leptosphaeria nodorum
  LEPTNO control of plant disease: ++ (++ = 75-100% control of plant disease)

## CNC(=O)C(=NOC)c1ccccc1COc1ncc(C(O)c2cccs2)cc1Cl (racemic) [Example 51]
Phytophthora infestans
  PHYTIN control of plant disease: ++ (++ = 75-100% control of plant disease)
Puccinia recondita
  PUCCRT control of plant disease: ++ (++ = 75-100% control of plant disease)
Erysiphe graminis
  ERYSGT control of plant disease: ++ (++ = 75-100% control of plant disease)
Leptosphaeria nodorum
  LEPTNO control of plant disease: ++ (++ = 75-100% control of plant disease)

## CNC(=O)C(=NOC)c1ccccc1COc1ncc(C(C)OCc2ccccc2)cc1Cl (racemic) [Example 52]
Phytophthora infestans
  PHYTIN control of plant disease: − (− = 0-24% control of plant disease)
Puccinia recondita
  PUCCRT control of plant disease: ++ (++ = 75-100% control of plant disease)
Erysiphe graminis
  ERYSGT control of plant disease: ++ (++ = 75-100% control of plant disease)
Leptosphaeria nodorum
  LEPTNO control of plant disease: ++ (++ = 75-100% control of plant disease)

## CNC(=O)C(=NOC)c1ccccc1COc1ncc(C(C)(OC(C)=O)c2ccccc2)cc1Cl (racemic) [Example 53]
Phytophthora infestans
  PHYTIN control of plant disease: ++ (++ = 75-100% control of plant disease)
Puccinia recondita
  PUCCRT control of plant disease: ++ (++ = 75-100% control of plant disease)
Erysiphe graminis
  ERYSGT control of plant disease: ++ (++ = 75-100% control of plant disease)
Leptosphaeria nodorum
  LEPTNO control of plant disease: ++ (++ = 75-100% control of plant disease)

## CNC(=O)C(=NOC)c1ccccc1COc1ncc(C(OC=O)c2ccccc2)cc1Cl (racemic) [Example 54]
Phytophthora infestans
  PHYTIN control of plant disease: ++ (++ = 75-100% control of plant disease)
Puccinia recondita
  PUCCRT control of plant disease: ++ (++ = 75-100% control of plant disease)
Erysiphe graminis
  ERYSGT control of plant disease: ++ (++ = 75-100% control of plant disease)
Leptosphaeria nodorum
  LEPTNO control of plant disease: ++ (++ = 75-100% control of plant disease)

## CNC(=O)C(=NOC)c1ccccc1COc1ncc(C(OC(=O)OC(C)C)c2ccccc2)cc1Cl (racemic) [Example 56]
Phytophthora infestans
  PHYTIN control of plant disease: ++ (++ = 75-100% control of plant disease)
Puccinia recondita
  PUCCRT control of plant disease: ++ (++ = 75-100% control of plant disease)
Erysiphe graminis
  ERYSGT control of plant disease: ++ (++ = 75-100% control of plant disease)
Leptosphaeria nodorum
  LEPTNO control of plant disease: ++ (++ = 75-100% control of plant disease)

## CNC(=O)C(=NOC)c1ccccc1COc1ncc(C(O)c2ccc3c(c2)OCO3)cc1Cl (racemic) [Example 58]
Phytophthora infestans
  PHYTIN control of plant disease: ++ (++ = 75-100% control of plant disease)
Puccinia recondita
  PUCCRT control of plant disease: ++ (++ = 75-100% control of plant disease)
Erysiphe graminis
  ERYSGT control of plant disease: ++ (++ = 75-100% control of plant disease)
Leptosphaeria nodorum
  LEPTNO control of plant disease: ++ (++ = 75-100% control of plant disease)
